Data: patent EP2264011A1, “Heteroarylamidines and their use as fungicides” (Bayer CropScience AG, priority 2009, dated 2010)

What was measured:
[1] = physchem; details: pH 2.3
Excerpt: Die Bestimmung erfolgt im sauren Bereich bei pH 2.3 mit 0,1% wässriger Phosphorsäure und Acetonitril als Eluenten linearer Gradient von 10% Acetonitril bis 95% Acetonitril.

[2] = tested on: Meloidogyne incognita; assay: Meloidogyne test (MELGIN); assay type: in vivo; details: 20 ppm; sand with lettuce seeds; 100 % = no galls
Excerpt: (§1) Zur Herstellung einer zweckmäßigen Wirkstoffzubereitung vermischt man 1 Gewichtsteil Wirkstoff mit den angegebenen Mengen Lösungsmittel und Emulgator und verdünnt das Konzentrat mit Wasser auf die gewünschte Konzentration.
Gefäße werden mit Sand, Wirkstofflösung, Meloidogyne incognita-Ei-Larvensuspension und Salatsamen gefüllt. Die Salatsamen keimen und die Pflänzchen entwickeln sich. An den Wurzeln entwickeln sich die Gallen.
Nach der gewünschten Zeit wird die nematizide Wirkung an Hand der Gallenbildung in % bestimmt. Dabei bedeutet 100 %, dass keine Gallen gefunden wurden; 0 % bedeutet, dass die Zahl der Gallen an den behandelten Pflanzen der der unbehandelten Kontrolle entspricht.

[3] = tested on: Myzus persicae; assay: Myzus test; oral (MYZUPE); assay type: in vivo; details: 100 g/ha; oral uptake by sucking; 100 % = all aphids killed
Excerpt: Zur Herstellung einer zweckmäßigen Wirkstoffzubereitung vermischt man 1 Gewichtsteil Wirkstoff mit den angegebenen Mengen Lösungsmittel und verdünnt das Konzentrat mit Wasser auf die gewünschte Konzentration.
Gefäße werden mit allen Stadien der Grünen Pfirsichblattlaus (Myzus persicae) besetzt, durch saugen an der Wirkstoffzubereitung der gewünschten Konzentration wird behandelt.
(§2) Nach der gewünschten Zeit wird die Wirkung in % bestimmt. Dabei bedeutet 100 %, dass alle Blattläuse abgetötet wurden; 0 % bedeutet, dass keine Blattläuse abgetötet wurden.

[4] = tested on: Myzus persicae; assay: Myzus test (MYZUPE spray treatment); assay type: in vivo; details: 500 g/ha; spray on Chinese cabbage leaf discs (Brassica pekinensis); 100 % = all aphids killed
Excerpt: (§3) Zur Herstellung einer zweckmäßigen Wirkstoffzubereitung vermischt man 1 Gewichtsteil Wirkstoff mit den angegebenen Mengen Lösungsmittel und Emulgator und verdünnt das Konzentrat mit emulgatorhaltigem Wasser auf die gewünschte Konzentration.
Chinakohlblattscheiben (Brassica pekinensis), die von allen Stadien der Grünen Pfirsichblattlaus (Myzus persicae) befallen sind, werden mit einer Wirkstoffzubereitung der gewünschten Konzentration gespritzt.
as §2

[5] = tested on: Botrytis cinerea; assay: Botrytis test (cucumber) / protective; assay type: in vivo; details: 500ppm active ingredient, evaluated 5-6 days after inoculation
Method: as §1
Zur Prüfung auf protektive Wirksamkeit bespritzt man junge Gurkenpflanzen mit der Wirkstoffzubereitung in der angegebenen Aufwandmenge. 1 Tag nach der Behandlung werden die Pflanzen mit einer Sporensuspension von Botrytis cinerea inokuliert und stehen dann 48h bei 100% rel. Feuchte und 22°C. Anschließend stehen die Pflanzen bei 96% rel. Luftfeuchtigkeit und einer Temperatur von 14°C.
5-6 Tage nach der Inokulation erfolgt die Auswertung. Dabei bedeutet 0 % ein Wirkungsgrad, der demjenigen der Kontrolle entspricht, während ein Wirkungsgrad von 100 % bedeutet, dass kein Befall beobachtet wird.

[6] = tested on: Blumeria graminis f·sp. hordei; assay: Blumeria graminis test (barley) / protective; assay type: in vivo; details: 1000 ppm active ingredient, evaluated 7 days after inoculation
Excerpt: as §1
Zur Prüfung auf protektive Wirksamkeit besprüht man junge Pflanzen mit der Wirkstoffzubereitung in der angegebenen Aufwandmenge.
Nach Antrocknen des Spritzbelages werden die Pflanzen mit Sporen von Blumeria graminis f·sp. hordei bestäubt.
Die Pflanzen werden in einem Gewächshaus bei einer Temperatur von ca. 18°C und einer relativen Luftfeuchtigkeit von ca. 80 % aufgestellt, um die Entwicklung von Mehltaupusteln zu begünstigen.
7 Tage nach der Inokulation erfolgt die Auswertung. Dabei bedeutet 0 % ein Wirkungsgrad, der demjenigen der Kontrolle entspricht, während ein Wirkungsgrad von 100 % bedeutet, dass kein Befall beobachtet wird.

[7] = tested on: Tetranychus urticae; assay: Tetranychus test, OP-resistant (TETRUR spray treatment); assay type: in vivo; details: 500 g/ha; spray on bean leaf discs (Phaseolus vulgaris); 100 % = all spider mites killed
Excerpt: as §3
Bohnenblattscheiben (Phaseolus vulgaris), die von allen Stadien der Gemeinen Spinnmilbe (Tetranychus urticae) befallen sind, werden mit einer Wirkstoffzubereitung der gewünschten Konzentration gespritzt.
Nach der gewünschten Zeit wird die Wirkung in % bestimmt. Dabei bedeutet 100 %, dass alle Spinnmilben abgetötet wurden; 0 % bedeutet, dass keine Spinnmilben abgetötet wurden.

[8] = tested on: SETVI; assay: Herbicidal action, test type PE; assay type: in vivo; details: Test-Typ PE, 320 G/HA
Excerpt: (§4) Die herbizide Wirkung der Verbindungen der allgemeinen Formel (I) wird in den nachfolgenden Tabellen näher erläutert.

[9] = tested on: VERPE; assay: Herbicidal action, test type PE; assay type: in vivo; details: Test-Typ PE, 320 G/HA
Excerpt: as §4

[10] = tested on: VIOTR; assay: Herbicidal action, test type PE; assay type: in vivo; details: Test-Typ PE, 320 G/HA
Excerpt: as §4

[11] = tested on: ECHCG; assay: Herbicidal action, test type PE; assay type: in vivo; details: Test-Typ PE, 320 G/HA
Excerpt: as §4

[12] = tested on: SETVI; assay: Herbicidal action, test type PO; assay type: in vivo; details: TEST-TYP PO, 80 G/HA
Excerpt: as §4

[13] = tested on: VERPE; assay: Herbicidal action, test type PO; assay type: in vivo; details: TEST-TYP PO, 80 G/HA
Excerpt: as §4

[14] = tested on: AMARE; assay: Herbicidal action, test type PO; assay type: in vivo; details: TEST-TYP PO, 80 G/HA
Excerpt: as §4

[15] = tested on: AMARE; assay: Herbicidal action, test type PE; assay type: in vivo; details: Test-Typ PE, 320 G/HA
Excerpt: as §4

[16] = tested on: Venturia inaequalis; assay: Venturia test (apple) / protective; assay type: in vivo; details: 100ppm active ingredient, evaluated 10 days after inoculation
Excerpt: as §1
Zur Prüfung auf protektive Wirksamkeit werden junge Pflanzen mit der Wirkstoffzubereitung in der angegebenen Aufwandmenge besprüht. Nach Antrocknen des Spritzbelages werden die Pflanzen mit einer wäßrigen Konidiensuspension des Apfelschorferregers Venturia inaequalis inokuliert und verbleiben dann 1 Tag bei ca. 20°C und 100% relativer Luftfeuchtigkeit in einer Inkubations-kabine.
Die Pflanzen werden dann im Gewächshaus bei ca. 21°C und einer relativen Luftfeuchtigkeit von ca. 90% aufgestellt.
10 Tage nach der Inokulation erfolgt die Auswertung. Dabei bedeutet 0% ein Wirkungsgrad, der demjenigen der Kontrolle entspricht, während ein Wirkungsgrad von 100% bedeutet, daß kein Befall beobachtet wird.

[17] = tested on: DIGSA; assay: Herbicidal action, test type PE; assay type: in vivo; details: Test-Typ PE, 320 G/HA
Excerpt: as §4

[18] = tested on: PHBPU; assay: Herbicidal action, test type PO; assay type: in vivo; details: TEST-TYP PO, 80 G/HA
Excerpt: as §4

`Cc1cc(-c2ccc(F)c(C(F)(F)F)c2)ncc1N=CN(C(C)C)C(C)C` [compound 122] showed a chromatographic logP [1] of 1.9.

With `CC(=Nc1cnc(-c2ccc(Cl)c(C(F)(F)F)c2)cc1C)N(C)C` [compound 123] the chromatographic logP [1] was 1.03.

With `CCN(C)C=Nc1cnc(-c2ccc(OC(F)(F)F)c(F)c2)cc1C` [Beispiel 247] the “nematizide Wirkung an Hand der Gallenbildung” value [2] was no less than 80% and the Wirkung [3] was no less than 80%.

`Cc1cc(-c2ccc(Cl)c(C(F)(F)F)c2)ncc1N=CN1CCCC1` [compound 117] gave a chromatographic logP [1] of 1.75.

`CCN(C)C=Nc1cnc(-c2cccnc2)cc1C` [Beispiel 95] gave a Wirkung [4] of no less than 80% and a Wirkung [3] of no less than 80%.

Compound `CCN(C)C=Nc1cnc(-c2ccc(C(C)(C)C)cc2)cc1C` [Beispiel 142] has a Wirkungsgrad [5] of no less than 70% and a Wirkungsgrad [6] of no less than 70%.

With `Cc1cc(-c2ccc(C(F)(F)F)c(Cl)c2)ncc1N=CN(C)C` [Beispiel 105] the “nematizide Wirkung an Hand der Gallenbildung” value [2] was no less than 80%, the Wirkung [7] was no less than 80% and the “herbizide Wirkung SETVI” value [8] was 80. For the same compound, the “herbizide Wirkung VERPE” value [9] was 100, the “herbizide Wirkung VIOTR” value [10] was 90 and the “herbizide Wirkung ECHCG” value [11] was 80. For the same compound, the “herbizide Wirkung SETVI” value [12] was 80, the “herbizide Wirkung VERPE” value [13] was 80 and the “herbizide Wirkung AMARE” value [14] was 80.

In the case of `CCN(C=Nc1cnc(-c2ccc(Cl)c(C(F)(F)F)c2)cc1C)CC` [Beispiel 119], the “herbizide Wirkung SETVI” value [8] is reported as 100, the “herbizide Wirkung AMARE” value [15] is reported as 80 and the chromatographic logP [1] is reported as 1.92.

For `Cc1cc(-c2cc(C(F)(F)F)cc(C(F)(F)F)c2)ncc1N=CN(C)C` [Beispiel 172], the Wirkung [3] was no less than 80%.

`CCN(C)C=Nc1cnc(-c2ccc(C3CCCCC3)cc2)cc1C` [Beispiel 209] gave a Wirkungsgrad [5] of no less than 70% and a Wirkungsgrad [16] of no less than 70%.

For `Cc1cc(-c2cccnc2)ncc1N=CN(C)C` [Beispiel 270], the Wirkung [4] was no less than 80% and the Wirkung [3] was no less than 80%.

With `Cc1cc(-c2ccc(F)nc2)ncc1N=CN(C)C` [Beispiel 234] the “nematizide Wirkung an Hand der Gallenbildung” value [2] was no less than 80%, the Wirkung [4] was no less than 80% and the Wirkung [3] was no less than 80%.

With `CCN(C)C=Nc1cnc(-c2ccc(OC(F)(F)F)cc2)cc1C` [compound 114] the chromatographic logP [1] was 1.34.

Compound `CCCCN(C=Nc1cnc(-c2ccc(Cl)c(C(F)(F)F)c2)cc1C)CCCC` [compound 118] has a chromatographic logP [1] of 2.49.

`Cc1cc(-c2ccc(OC(F)(F)F)cc2)ncc1N=CN(C)C` [compound 113] gave a chromatographic logP [1] of 1.25.

With `Cc1cc(-c2ccc(C(C)(C)C)cc2)ncc1N=CN1CCCCC1` [Beispiel 150] the Wirkungsgrad [5] was no less than 70% and the Wirkungsgrad [16] was no less than 70%.

In the case of `Cc1cc(-c2ccc([Si](C)(C)C)cc2)ncc1N=CN(C)C` [compound 115], the chromatographic logP [1] is reported as 1.51.

With `CC(=Nc1cnc(-c2ccc(Cl)c(C(F)(F)F)c2)cc1C)N1CCCCC1` [compound 124] the chromatographic logP [1] was 0.94.

In the case of `CCN(C)C=Nc1cnc(-c2ccc(Cl)c(C(F)(F)F)c2)cc1C` [Beispiel 15], the Wirkungsgrad [5] is reported as no less than 70%, the “herbizide Wirkung SETVI” value [8] is reported as 100 and the “herbizide Wirkung VERPE” value [9] is reported as 90. The “herbizide Wirkung ECHCG” value [11] was 90, the “herbizide Wirkung AMARE” value [15] was 90 and the “herbizide Wirkung DIGSA” value [17] was 100. For the same compound, the Wirkungsgrad [6] was no less than 70%, the “herbizide Wirkung VERPE” value [13] was 80 and the “herbizide Wirkung PHBPU” value [18] was 90. For the same compound, the Wirkungsgrad [16] was no less than 70%.

Compound `Cc1cc(-c2ccc(Cl)c(C(F)(F)F)c2)ncc1N=CN(C(C)C)C(C)C` [compound 120] has a chromatographic logP [1] of 2.23.

With `Cc1cc(Cl)ncc1N=CN(C)C` [Beispiel 131] the Wirkungsgrad [5] was no less than 70%.

In the case of `Cc1cc(-c2ccc(C(F)(F)F)cc2)ncc1N=CN(C)C` [Beispiel 100], the “nematizide Wirkung an Hand der Gallenbildung” value [2] is reported as no less than 80%.

In the case of `Cc1cc(-c2ccc(F)c(C(F)(F)F)c2)ncc1N=CN1CCCC1` [compound 121], the chromatographic logP [1] is reported as 1.85.

Work on `CCN(C)C=Nc1cnc(-c2ccc([Si](C)(C)C)cc2)cc1C` [compound 116] yielded a chromatographic logP [1] of 1.6.
